{"source": "patent US4737361A", "about": "“Alpha adrenergic amine of substantial alpha2 adrenergic amine activity as an antiperspirant” (Bristol-Myers Company, priority 1986, dated 1988)", "key": {"[1]": {"tested_on": "sweat glands", "assay": "rat foot pad sweat inhibition (starch-iodine count of secreting sweat glands, test foot vs control foot)", "assay_type": "in vivo, Sprague Dawley rats", "conditions": "for Approx. % Inhibition: topical, rat hind foot pads, 40 minutes post treatment", "method": "A series of test solutions were prepared by dissolving various quantities of xylometazoline HCl, oxymetazoline HCl and naphazoline HCl in freshly prepared distilled water. In the case of xylometazoline HCl 0.003%, 0.03%, 0.15% and 0.3% solutions were prepared. In the cases for oxymetazoline HCl and naphazoline HCl 0.15% solutions were made. The control material is distilled water.\nA. Prior to testing, rats are routinely acclimated to the laboratory environment for seven days and gross observations are made to ensure good health of animals to be tested.\nB. Sprague Dawley rats, male and/or female (175-250 gm) are selected for test and identified by cage label and ear tag number.\nC. A minimum of 6 animals is used in testing each solution.\nA. Test room should be maintained at a temperature of 78°±2° F.\n1. Test animals are injected intramuscularly with Innovar Vet™ (0.01 ml/100 gm body wt.) by use of a 0.25 ml tuberculin syringe with a 26 or 27 gauge needle. Animals are then returned to their cages.\n3. Both hind feet are then swabbed with 70% ethyl alcohol (ETOH) to remove any debris.\n4. The four interdigital palmar foot pads on one hind foot are then treated with test material while the opposite hind foot is treated with the control material.\n5. After treatment of all animals, an iodine solution (2% in 95% ETOH wt./vol.) is applied to both hind feet.\n6. 30 minutes post treatment the hind feet are then painted with a suspension of starch and castor oil (50/50, wt./vol.).\n7. 40 minutes post treatment Polaroid photos (3X, using Polaroid Type Film 669) are taken of both hind feet in the same frame.\n1. The number of activated sweat glands in each of the four palmar foot pads is quantitated by manually counting the black dots observed in the photo of the control and test treated feet.\n2. The ratio of the total number of secreting sweat glands on the control foot vs the total number of secreting sweat glands on the test foot is used to estimate the percent inhibition of sweat in the rat foot pad.\n3. The following formula is used to calculate activity. [formula]"}, "[2]": {"tested_on": "single equine sweat glands", "conditions": "cited from earlier work"}}, "note": "Counter-ions that a name gives are not always drawn.", "data": [{"smiles": "c1ccc2c(CC3=NCCN3)cccc2c1", "note": "[Naphazoline HCl, naphazoline HCl]", "values": [{"measurement": "Approx. % Inhibition", "setting": "[1]; Concentration Tested 0.15%", "value": "~95", "unit": "%"}]}, {"smiles": "Cc1cc(C(C)(C)C)c(O)c(C)c1CC1=NCCN1", "note": "[Oxymetazoline HCl, oxymetazoline HCl]", "values": [{"measurement": "Approx. % Inhibition", "setting": "[1]; Concentration Tested 0.15%", "value": "~92", "unit": "%"}]}, {"smiles": "Cc1cc(C(C)(C)C)cc(C)c1CC1=NCCN1", "note": "[Xylometazoline HCl, xylometazoline HCl]", "values": [{"measurement": "dose response of percent inhibition", "setting": "[1]; 0.003-0.3% solutions", "value": "the percent inhibition increased with the increase in concentration of the test drug"}, {"measurement": "Approx. % Inhibition", "setting": "[1]; Concentration Tested 0.003%", "value": "~30", "unit": "%"}, {"measurement": "Approx. % Inhibition", "setting": "[1]; Concentration Tested 0.03%", "value": "~50", "unit": "%"}, {"measurement": "Approx. % Inhibition", "setting": "[1]; Concentration Tested 0.15%", "value": "~80", "unit": "%"}, {"measurement": "Approx. % Inhibition", "setting": "[1]; Concentration Tested 0.3%", "value": "~88", "unit": "%"}]}, {"smiles": "COc1ccc(OC)c(C(O)C(C)N)c1", "note": "(stereo not drawn) [methoxamine]", "values": [{"measurement": "sweating responses", "setting": "[2]", "value": "moderate sweating responses"}]}, {"smiles": "CNC[C@H](O)c1cccc(O)c1", "note": "[phenylephrine]", "values": [{"measurement": "sweating responses", "setting": "[2]", "value": "moderate sweating responses"}]}]}
